Square brackets hold non-standard residues; d marks the D form. Peptide text beside a SMILES is read from it. * marks the point of attachment. Sta = CC(C)C[C@H](N)[C@@H](O)CC(=O)O; Isovaleryl = CC(C)CC(=O)*
Columns and labels:
SAP2 = SAP2 (Candida albicans, UniProt P0DJ06); type: biochemical; details: 10 μm compound; relative to pepstatin; pH 3.2, 30 min at 37° C.
Procedure: Spectrophotometric method: protease activity of the various compounds of formula (I) was measured by a spectrophotometric assay with respect to pepstatin activity at the same concentration: each assay contained 50 μl of sample in 0.4 ml of 1% (w/v) BSA in 50 mM sodium citrate pH 3.2 and 50 μl of protease solution (1 μg/ml) After 30 min at 37° C. 1 ml 10% (w/v) trichloroacetic acid was added. The tubes were stored in ice for 30 min, and then centrifuged (3000 g) for 10 min. The absorbance of the supernatant was read at 280 nm. Control: 1% BSA in citrate buffer. One unit of the enzyme catalysed a ΔA280 of 1 min^−1. With the pure protease the assay was proportional to enzyme concentration over the range ΔA280 0.1-0.4 and a limit detection of 1 μg (De Bernardis F., Sullivan P. A., Cassone A. Medical Mycology 2001, 39, 303).

C. albicans SA40 = assay: Experimental rat vaginal infection, C. albicans SA40 clearance; type: in vivo, Candida albicans; details: for Candida SA40 cells in vaginal fluid (CFU/ml): oophorectomized Wistar rats, intravaginal treatment 1, 24, 48 hrs after challenge
Procedure: (§1) Experimental vaginal infection: for the experimental vaginal infection, a previously described rat vaginal model was adopted (De Bernardis, F.; Boccanera, M.; Adriani, D.; Spreghini, E.; Santoni, G.; Cassone, A. Infect. Immun., 1997, 65, 3399).
(§2) In brief, oophorectomized female Wistar rats (80-100 g; Charles River Calco, Italy) were injected subcutaneously with 0.5 mg of estradiol benzoate (Estradiolo, Amsa Farmaceutici srl, Rome, Italy). Six days after the first estradiol the animals were inoculated intravaginally with […] yeast cells in 0.1 ml of saline solution of each C. albicans strain tested. The inoculum was dispensed into the vaginal cavity through a syringe equipped with a multipurpose calibrated tip (Combitip; PBI, Milan, Italy). The yeast cells had been previously grown in YPD broth (yeast extract 1%; peptone 2%; dextrose 2%) at 28° C. on a gyrator shaker (200 rpm), harvested by centrifugation (1500 g), washed, counted in a hemocytometer, and suspended to the required number in saline solution. The number of cells in the vaginal fluid was counted by culturing 100 μl samples (using a calibrated plastic loop, Disponoic, PBI, Milan, Italy) taken from each animals, on Sabouraud agar containing chloramphenicol (50 μg/ml) as previously described. The rat was considered infected when at least 1 CFU was present in the vaginal lavage, i.e. a count of […].
(§3) Positive (pepstatin 10 μg; fluconazole 10 μg and negative (sterile saline solution) were similarly administered.

C. albicans AIDS68 = assay: Experimental rat vaginal infection, C. albicans AIDS68 (pharmacoresistant) clearance; type: in vivo, Candida albicans; details: for Candida AIDS68 cells in vaginal fluid (CFU/ml): oophorectomized Wistar rats, intravaginal treatment 1, 24, 48 hrs after challenge
Procedure: as §1, §2, §3

Chain of SAP2 (P0DJ06 57-398): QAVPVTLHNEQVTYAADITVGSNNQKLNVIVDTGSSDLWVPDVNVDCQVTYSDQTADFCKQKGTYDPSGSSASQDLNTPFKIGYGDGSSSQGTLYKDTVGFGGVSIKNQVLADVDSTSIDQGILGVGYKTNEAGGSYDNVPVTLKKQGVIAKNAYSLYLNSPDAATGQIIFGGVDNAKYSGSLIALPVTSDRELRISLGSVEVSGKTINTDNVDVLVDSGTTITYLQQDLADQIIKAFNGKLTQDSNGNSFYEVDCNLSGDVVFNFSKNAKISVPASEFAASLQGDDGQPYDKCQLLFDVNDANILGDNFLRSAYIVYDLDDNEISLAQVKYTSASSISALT

Structure (SMILES): COC(=O)[C@H](CC(C)C)N1C[C@H]2O[C@H](C(=O)N3CCCCC3)[C@@H](O2)C1=O [Cpd 1, (2S)-4-Methyl-2-[(1R,5S,7S)-2-oxo-7-(piperidine-1-carbonyl)-6,8-dioxa-3-aza-bicyclo[3.2.1]oct-3-yl]-pentanoic acid methyl ester]
- 1% percent of inhibition with respect to pepstatin at the same concentration (SAP2): 37%

Structure (SMILES): COC(=O)[C@H](CC(C)C)N1C[C@H]2O[C@H](C(=O)N3CCOCC3)[C@@H](O2)C1=O [Cpd 2, 4′-Methyl-(2′S)-2′-[(1R,5S,7S)-7-(morpholine-4-carbonyl)-2-oxo-6,8-dioxa-3-aza-bicyclo[3.2.1]oct-3-yl]-pentanoic acid methyl ester]
- 1% percent of inhibition with respect to pepstatin at the same concentration (SAP2): 32%

Structure (SMILES): CCCCNC(=O)CC(O)CNC(=O)[C@H](CC(C)C)N1C[C@H]2O[C@H](C(=O)N3CCCCC3)[C@@H](O2)C1=O (stereo partly drawn) [Cpd 3, (2S)-4-Methyl-2-[(1R,5S,7S)-2-oxo-7-(piperidine-1-carbonyl)-6,8-dioxa-3-aza-bicyclo[3.2.1]oct-3-yl]-pentanoic acid (3-butylcarbamoyl-2-hydroxy-propyl)-amide]
- 1% percent of inhibition with respect to pepstatin at the same concentration (SAP2): 22%

Structure (SMILES): O=C(NCCO)C1OC2CN(Cc3ccccc3)C(=O)C1O2 (stereo not shown) [Cpd 4]
- 1% percent of inhibition with respect to pepstatin at the same concentration (SAP2): 36%

Structure (SMILES): CC(C)CC(CO)NC(=O)C1OC2CN(Cc3ccccc3)C(=O)C1O2 (stereo not shown) [Cpd 5]
- 1% percent of inhibition with respect to pepstatin at the same concentration (SAP2): 41%

Structure (SMILES): O=C(C1OC2CN(Cc3ccccc3)C(=O)C1O2)N1CCCCC1 (stereo not shown) [Cpd 6]
- 1% percent of inhibition with respect to pepstatin at the same concentration (SAP2): 42%
- differences between treated and untreated control (C. albicans SA40; SA40, starting day 1, P<0.01, Mann-withney U test): statistically significant
- Candida SA40 cells in vaginal fluid (CFU/ml) (C. albicans SA40; day 0): >100 ×1000
- Candida SA40 cells in vaginal fluid (CFU/ml) (C. albicans SA40; day 1): 70 ± 1.3 ×1000
- Candida SA40 cells in vaginal fluid (CFU/ml) (C. albicans SA40; day 2): 57.6 ± 1.4 ×1000
- Candida SA40 cells in vaginal fluid (CFU/ml) (C. albicans SA40; day 5): 39.2 ± 3 ×1000
- Candida SA40 cells in vaginal fluid (CFU/ml) (C. albicans SA40; day 7): 30.6 ± 1.8 ×1000
- Candida SA40 cells in vaginal fluid (CFU/ml) (C. albicans SA40; day 14): 14.4 ± 1.6 ×1000
- Candida SA40 cells in vaginal fluid (CFU/ml) (C. albicans SA40; day 21): 8 ± 1.5 ×1000
- Candida SA40 cells in vaginal fluid (CFU/ml) (C. albicans SA40; day 28): 1.2 ± 0.7 ×1000
- differences between treated and untreated control (C. albicans AIDS68; AIDS68, starting day 1, P<0.01, Mann-withney U test): statistically significant
- Candida AIDS68 cells in vaginal fluid (CFU/ml) (C. albicans AIDS68; day 0): >100 ± 0 ×1000
- Candida AIDS68 cells in vaginal fluid (CFU/ml) (C. albicans AIDS68; day 1): 71.8 ± 1.3 ×1000
- Candida AIDS68 cells in vaginal fluid (CFU/ml) (C. albicans AIDS68; day 2): 62.6 ± 1.5 ×1000
- Candida AIDS68 cells in vaginal fluid (CFU/ml) (C. albicans AIDS68; day 5): 40.6 ± 1.4 ×1000
- Candida AIDS68 cells in vaginal fluid (CFU/ml) (C. albicans AIDS68; day 7): 23.2 ± 1.4 ×1000
- Candida AIDS68 cells in vaginal fluid (CFU/ml) (C. albicans AIDS68; day 14): 12.8 ± 1.2 ×1000
- Candida AIDS68 cells in vaginal fluid (CFU/ml) (C. albicans AIDS68; day 21): 3.4 ± 1.7 ×1000
- Candida AIDS68 cells in vaginal fluid (CFU/ml) (C. albicans AIDS68; day 28): 0 ± 0 ×1000

Structure (SMILES): O=C(C1OC2CN(Cc3ccccc3)C(=O)C1O2)N1CCN(CCO)CC1 (stereo not shown) [Cpd 7]
- 1% percent of inhibition with respect to pepstatin at the same concentration (SAP2): 34%

Structure (SMILES): O=C(C1OC2CN(Cc3ccccc3)C(=O)C1O2)N1CCOCC1 (stereo not shown) [Cpd 8]
- 1% percent of inhibition with respect to pepstatin at the same concentration (SAP2): 31%

Structure (SMILES): CCOC(=O)N1CCN(C(=O)C2OC3CN(Cc4ccccc4)C(=O)C2O3)CC1 (stereo not shown) [Cpd 9]
- 1% percent of inhibition with respect to pepstatin at the same concentration (SAP2): 37%

Structure (SMILES): O=C(NCCCO)C1OC2CN(Cc3ccccc3)C(=O)C1O2 (stereo not shown) [Cpd 10]
- 1% percent of inhibition with respect to pepstatin at the same concentration (SAP2): 12%

Structure (SMILES): O=C(NC(CO)c1ccccc1)C1OC2CN(Cc3ccccc3)C(=O)C1O2 (stereo not shown) [Cpd 13]
- 1% percent of inhibition with respect to pepstatin at the same concentration (SAP2): 16%

Structure (SMILES): O=C(NC(CO)Cc1ccccc1)C1OC2CN(Cc3ccccc3)C(=O)C1O2 (stereo not shown) [Cpd 14]
- 1% percent of inhibition with respect to pepstatin at the same concentration (SAP2): 19%

Structure (SMILES): O=C(NC(CO)Cc1ccccc1)C1OC2CN(Cc3ccccc3)C(=O)C1O2 (stereo not shown) [Cpd 15]
- 1% percent of inhibition with respect to pepstatin at the same concentration (SAP2): 15%

Structure (SMILES): CCCCNC(=O)C1OC2OC1C(=O)N(Cc1ccccc1)C2Cc1ccccc1 (stereo not shown) [Cpd 16]
- 1% percent of inhibition with respect to pepstatin at the same concentration (SAP2): 17%

Structure (SMILES): CCCCCCNC(=O)C1OC2OC1C(=O)N(Cc1ccccc1)C2Cc1ccccc1 (stereo not shown) [Cpd 17]
- 1% percent of inhibition with respect to pepstatin at the same concentration (SAP2): 21%

Structure (SMILES): O=C(NCC(F)(F)F)C1OC2OC1C(=O)N(Cc1ccccc1)C2Cc1ccccc1 (stereo not shown) [Cpd 18]
- 1% percent of inhibition with respect to pepstatin at the same concentration (SAP2): 17%

Structure (SMILES): O=C(C1OC2OC1C(=O)N(Cc1ccccc1)C2Cc1ccccc1)N1CCOCC1 (stereo not shown) [Cpd 19]
- 1% percent of inhibition with respect to pepstatin at the same concentration (SAP2): 25%

Structure (SMILES): O=C(C1OC2OC1C(=O)N(Cc1ccccc1)C2Cc1ccccc1)N1CCSCC1 (stereo not shown) [Cpd 20]
- 1% percent of inhibition with respect to pepstatin at the same concentration (SAP2): 28%

Structure (SMILES): O=C(C1OC2OC1C(=O)N(Cc1ccccc1)C2Cc1ccccc1)N1CCN(CCO)CC1 (stereo not shown) [Cpd 21]
- 1% percent of inhibition with respect to pepstatin at the same concentration (SAP2): 31%

Structure (SMILES): OC(Cn1cncn1)(Cn1cncn1)c1ccc(F)cc1F [fluconazole]
- Candida AIDS68 cells in vaginal fluid (CFU/ml) (C. albicans AIDS68; day 0): >100 ± 0 ×1000
- Candida AIDS68 cells in vaginal fluid (CFU/ml) (C. albicans AIDS68; day 1): 100 ± 0 ×1000
- Candida AIDS68 cells in vaginal fluid (CFU/ml) (C. albicans AIDS68; day 2): 93 ± 4.3 ×1000
- Candida AIDS68 cells in vaginal fluid (CFU/ml) (C. albicans AIDS68; day 5): 61 ± 2.5 ×1000
- Candida AIDS68 cells in vaginal fluid (CFU/ml) (C. albicans AIDS68; day 7): 44 ± 2.9 ×1000
- Candida AIDS68 cells in vaginal fluid (CFU/ml) (C. albicans AIDS68; day 14): 18.7 ± 3.8 ×1000
- Candida AIDS68 cells in vaginal fluid (CFU/ml) (C. albicans AIDS68; day 21): 11.7 ± 0.7 ×1000
- Candida AIDS68 cells in vaginal fluid (CFU/ml) (C. albicans AIDS68; day 28): 0 ± 0 ×1000

Structure (SMILES): CC(C)CC(=O)N[C@H](C(=O)N[C@H](C(=O)N[C@@H](CC(C)C)[C@@H](O)CC(=O)N[C@@H](C)C(=O)N[C@@H](CC(C)C)[C@@H](O)CC(=O)O)C(C)C)C(C)C [pepstatin, reference compound] (Isovaleryl-VV[Sta]A[Sta]-OH)
- Candida SA40 cells in vaginal fluid (CFU/ml) (C. albicans SA40; day 0): >100 ×1000
- Candida SA40 cells in vaginal fluid (CFU/ml) (C. albicans SA40; day 1): 56.8 ± 2 ×1000
- Candida SA40 cells in vaginal fluid (CFU/ml) (C. albicans SA40; day 2): 51 ± 1.2 ×1000
- Candida SA40 cells in vaginal fluid (CFU/ml) (C. albicans SA40; day 5): 32.4 ± 2.5 ×1000
- Candida SA40 cells in vaginal fluid (CFU/ml) (C. albicans SA40; day 7): 28 ± 1.5 ×1000
- Candida SA40 cells in vaginal fluid (CFU/ml) (C. albicans SA40; day 14): 9.4 ± 1.4 ×1000
- Candida SA40 cells in vaginal fluid (CFU/ml) (C. albicans SA40; day 21): 5 ± 1.3 ×1000
- Candida SA40 cells in vaginal fluid (CFU/ml) (C. albicans SA40; day 28): 0 ×1000
- Candida AIDS68 cells in vaginal fluid (CFU/ml) (C. albicans AIDS68; day 0): >100 ± 0 ×1000
- Candida AIDS68 cells in vaginal fluid (CFU/ml) (C. albicans AIDS68; day 1): 58.4 ± 1.0 ×1000
- Candida AIDS68 cells in vaginal fluid (CFU/ml) (C. albicans AIDS68; day 2): 52.0 ± 1.3 ×1000
- Candida AIDS68 cells in vaginal fluid (CFU/ml) (C. albicans AIDS68; day 5): 37.2 ± 1.6 ×1000
- Candida AIDS68 cells in vaginal fluid (CFU/ml) (C. albicans AIDS68; day 7): 30.0 ± 1.2 ×1000
- Candida AIDS68 cells in vaginal fluid (CFU/ml) (C. albicans AIDS68; day 14): 19.8 ± 0.8 ×1000
- Candida AIDS68 cells in vaginal fluid (CFU/ml) (C. albicans AIDS68; day 21): 3.8 ± 1.9 ×1000
- Candida AIDS68 cells in vaginal fluid (CFU/ml) (C. albicans AIDS68; day 28): 0 ± 0 ×1000
